From patent US9067898B1, “Isothiazole derivatives as GPR120 agonists for the treatment of type II diabetes” (Janssen Pharmaceutica NV, priority 2014, dated 2015)

Legend:
Format in all cases: cell-based
Human GPR120 short form [1] = molecular target: T1, Human GPR120 short form (Homo sapiens, UniProt Q5NUL3); assay: Human GPR120 calcium flux assay (FLIPR), Procedure Calcium B; conditions: HEK-293 cells expressing human GPR120 short form, 4200 cells/well; read-out: GPR120 Ca2+ Assay B EC50
T1 construct: expressed in transfected cells
T1 sequence (Q5NUL3 1-361): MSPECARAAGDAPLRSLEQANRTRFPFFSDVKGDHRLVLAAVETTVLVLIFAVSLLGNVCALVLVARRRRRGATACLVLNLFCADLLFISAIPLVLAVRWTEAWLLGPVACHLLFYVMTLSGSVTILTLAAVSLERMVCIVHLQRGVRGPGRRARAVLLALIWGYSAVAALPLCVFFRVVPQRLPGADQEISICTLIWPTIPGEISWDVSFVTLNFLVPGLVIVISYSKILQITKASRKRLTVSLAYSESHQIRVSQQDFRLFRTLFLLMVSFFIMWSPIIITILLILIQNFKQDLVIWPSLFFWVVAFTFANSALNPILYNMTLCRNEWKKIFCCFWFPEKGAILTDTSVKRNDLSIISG
Text: This in vitro assay serves to assess test compound agonist activity against the short splice variant (SVS with Accession number NM_001195755.1 confirmed by sequencing data) of the GPR120 receptor. The Human Short splice variant #2 (NM_001195755.1) is missing an in-frame coding exon compared to variant 1 (the Human Long splice variant NM_181745.3), resulting in a shorter isoform (GPR120-S) lacking a 16 aa protein segment compared to isoform GPR120-L. The assay platform utilizes HEK-293 cells stably transfected to express the Human GPR120 short form. These cells are first loaded with the Ca^+2 sensitive dye, Fluo-4 NW. Upon stimulation, intracellular released Ca^+2 can bind to the dye and alter its fluorescence intensity. This increase in fluorescence signal, and thus the flux in intracellular [Ca^2+], is detected and quantitated by fluorescence imaging using a FLIPR reader. The effect of the agonist is measured as a function of concentration and used to calculate an EC50 based upon a response curve.
In this procedure 4200 cells/well were employed.
A Human GPR120 clone (Genbank accession number NM_001195755.1) was placed into the pcDNA3.1 mammalian expression vector carrying the neomycin resistance gene. A stable mammalian cell was generated by placing the above clone into a HEK293 background. Clonal cells responding to long chain fatty acids had expression levels of GPR120 confirmed by RT-qPCR. Human HEK-GPR120 cells were cultured in Dulbecco's Modified Eagle's Medium (DMEM)/F12 medium supplemented with 10% fetal bovine serum (FBS), 1% L-Glutamine and 1% penicillin/streptomycin and 0.5 mg/ml G-418. Cells were split 2 times a week to keep the cells in the log-phase growth.
In preparation for the assay, HEK cells stably transfected with Human GPR120 (2.5K cells per well in 25 uL growth medium) were seeded into 384-well plates and then incubated overnight (37° C., 5% CO2). The next day, the media was changed to 20 μL assay buffer and the cell starved for 1 h at 37° C. The dye loading solution (2× dye) was prepared using 10 mL assay buffer, 100 μL of 250 mM probenecid, 1 bottle of Component A, and 20 μl of dye in DMSO. Twenty μL of the 2× dye loading buffer was then added to each well. The plates were incubated at 37° C. for 30 min, then at room temperature for an additional 15 minutes, before performing the assay on FLIPR. Test compounds were prepared in assay buffer (2 uL of cpd+198 uL assay buffer, final DMSO in assay plate is 0.2%) at the desired concentration, more particularly at 100, 50, 25, 12.5, 6.25, 3.125, 1.562, 0.781, 0.391, 0.195, 0.098, 0.049, 0.024 and 0.012 μM.
The assay was performed on a FLIPR plate reader using the following parameters. Baseline was read for 10 seconds at 1 sec intervals. The program was set to transfer 10 μL of ligand from compound plate to cell plate after baseline reading. Aspiration was executed at: 10 μL/sec speed, 4.6 μL height; Dispensing was executed at: 30 μL/sec speed, 45 μL height. After compound addition, each well was read for 300 sec, with measurements collected at 1 sec intervals.
The kinetic data from the FLIPR was based upon a 5 minute window for data collection. The fluorescence of each sample well was used for individual calculations of a normalized RFU value, which was defined as maximum response minus the minimum response. The normalized fluorescence reading (RFU) was calculated as follows: RFU=Fmax−Fmin The data were fitted to a sigmoidal dose-response curve with a variable Hill slope (<2) using nonlinear regression with GraphPad Prism 5.0 to calculate the EC50 values. The Fitting Equation was: Y=Bottom+(Top−Bottom)/(1+10^((Log EC50−X)*HillSlope)), where X is the log of the concentration and Y is the response.

[2] = molecular target: T2, short form of the GPR120 receptor (GPR120S) (Homo sapiens, UniProt Q5NUL3); assay: Human GPR120 DiscoveRx PathHunter Beta-Arrestin assay, Procedure β-arrestin B; conditions: PathHunter CHO-K1 GPR120S β-Arrestin cell line, 5000 cells/well, read-out: hGPR120 β-arrestin B EC50
T2 construct: host or cells: PathHunter CHO-K1 GPR120S β-Arrestin Cell Line
T2 sequence (P32121 whole entry partner, one chain of several): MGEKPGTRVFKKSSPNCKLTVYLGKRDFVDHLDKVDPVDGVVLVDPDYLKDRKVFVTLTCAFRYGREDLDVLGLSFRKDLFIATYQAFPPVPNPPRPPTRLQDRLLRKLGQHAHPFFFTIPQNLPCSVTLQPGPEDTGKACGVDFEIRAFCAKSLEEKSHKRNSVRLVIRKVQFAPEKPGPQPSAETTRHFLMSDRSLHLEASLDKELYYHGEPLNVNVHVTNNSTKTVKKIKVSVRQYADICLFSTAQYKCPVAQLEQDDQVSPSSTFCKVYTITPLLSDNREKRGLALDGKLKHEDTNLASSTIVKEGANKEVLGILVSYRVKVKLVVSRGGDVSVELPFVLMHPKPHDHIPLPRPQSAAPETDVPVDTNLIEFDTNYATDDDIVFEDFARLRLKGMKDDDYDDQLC
Summary of the method: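 PathHunter CHO-K1 β-arrestin cells expressed long-form GPR120 (Procedure A, 3000 cells/well) or short-form GPR120 (Procedure B, 5000 cells/well). Compounds were serially diluted from 25 µM and incubated 90 min at 37 °C in HBSS/20 mM HEPES/0.1% BSA, pH 7.4. Luminescence was read after 60 min detection at RT; EC50 comes from % activity versus positive control, Hill slope fixed at 1.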

Human GPR120 short form [3] = molecular target: T1, Human GPR120 short form; assay: Human GPR120 calcium flux assay (FLIPR), Procedure Calcium A; conditions: HEK-293 cells expressing human GPR120 short form, 2500 cells/well; read-out: GPR120 Ca2+ Assay A EC50
Summary of the method: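 HEK293 cells stably expressing the short isoform (NM_001195755.1), 2500/well, starved 1 h, then loaded with Fluo-4 NW plus probenecid (30 min 37 °C, 15 min RT). Compound solutions 0.012–100 μM, 0.2% DMSO final; FLIPR read 300 s after addition. EC50 from Fmax−Fmin fitted to variable-slope sigmoid (Hill <2).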

EC50 (Human GPR120 short form [1]) [µM]	EC50 [2] [µM]	EC50 (Human GPR120 short form [3]) [µM]	Compound
0.601	–	–	Cc1ccc(-c2snc(Cl)c2COc2ccc(CCC(=O)O)c(C(C)(F)F)c2)cc1 [Cpd 278, 3-[4-{[3-Chloro-5-(4-methylphenyl)isothiazol-4-yl]methoxy}-2-(1,1-difluoroethyl)phenyl]propanoic acid]
0.261	–	–	O=C(O)CCc1ccc(OCc2c(Cl)nsc2-c2ccccc2Cl)cc1C(F)(F)F [Cpd 259, 3-[4-{[3-Chloro-5-(2-chlorophenyl)isothiazol-4-yl]methoxy}-2-(trifluoromethyl)phenyl]propanoic acid]
0.986	–	–	Cc1ccc(-c2snc(Cl)c2COc2ccc(CCC(=O)O)c(C(F)(F)F)c2)c(C)c1 [Cpd 256, 3-[4-{[3-Chloro-5-(2,4-dimethylphenyl)isothiazol-4-yl]methoxy}-2-(trifluoromethyl)phenyl]propanoic acid]
–	0.997	0.3	Cc1ccc(-c2snc(C(F)(F)F)c2COc2ccc(CCC(=O)O)c(C)c2C)c(C)c1 [Cpd 184, 3-(4-[[5-(2,4-dimethylphenyl)-3-(trifluoromethyl)-1,2-thiazol-4-yl]methoxy]-2,3-dimethylphenyl) propanoic acid]
–	0.731	0.756	Cc1ccc(-c2snc(C(F)(F)F)c2COc2ccc(CCC(=O)O)c(C(F)(F)F)c2)c(F)c1 [Cpd 221, 3-(4-[[5-(2-fluoro-4-methylphenyl)-3-(trifluoromethyl)-1,2-thiazol-4-yl]methoxy]-2-(trifluoromethyl)phenyl)propanoic acid]
–	0.719	0.182	Cc1ccc(-c2snc(C(F)(F)F)c2COc2ccc(CCC(=O)O)c(C)c2C)c(F)c1 [Cpd 155, 3-(4-[[5-(2-fluoro-4-methylphenyl)-3-(trifluoromethyl)-1,2-thiazol-4-yl]methoxy]-2,3-dimethylphenyl)propanoic acid]
–	0.415	0.198	O=C(O)CCc1ccc(OCc2c(C(F)(F)F)nsc2-c2ccc(Cl)cc2)cc1OC(F)(F)F [Cpd 159, 3-(4-[[5-(4-chlorophenyl)-3-(trifluoromethyl)-1,2-thiazol-4-yl]methoxy]-2-(trifluoromethoxy)phenyl) propanoic acid]

More lines, now with the values behind:

Compound	EC50 (Human GPR120 short form [1]) [µM]	EC50 [2] [µM]	EC50 (Human GPR120 short form [3]) [µM]
O=C(O)CCc1ccc(OCc2c(-c3ccc(Cl)cc3)nsc2C(F)(F)F)cc1C(F)F [Cpd 274, 3-[4-{[3-(4-Chlorophenyl)-5-(trifluoromethyl)isothiazol-4-yl]methoxy}-2-(difluoromethyl)phenyl]propanoic acid]	3.98	–	–
Cc1ccccc1-c1snc(Cl)c1COc1ccc(CCC(=O)O)cc1 [Cpd 254, 3-(4-{[3-Chloro-5-(2-methylphenyl)isothiazol-4-yl]methoxy}phenyl)propanoic acid]	0.401	–	–
CC1CC=C(c2snc(Cl)c2COc2ccc(CCC(=O)O)c(C(F)(F)F)c2)CC1 (stereo not drawn) [Cpd 276, 3-[4-{[3-Chloro-5-(4-methylcyclohex-1-en-1-yl)isothiazol-4-yl]methoxy}-2-(trifluoromethyl)phenyl]propanoic acid]	0.886	–	–
Cc1cc(OCc2c(Cl)nsc2-c2ccccc2C)ccc1CCC(=O)O [Cpd 257, 3-(4-{[3-Chloro-5-(2-methylphenyl)isothiazol-4-yl]methoxy}-2-methylphenyl)propanoic acid]	1.06	–	–
CC(Cc1ccc(OCc2c(-c3ccc(Cl)cc3)nsc2C(F)(F)F)cc1)C(=O)O (stereo not drawn) [Cpd 195, 3-(4-[[3-(4-chlorophenyl)-5-(trifluoromethyl)-1,2-thiazol-4-yl]methoxy]phenyl)-2-methylpropanoic acid]	–	0.307	0.366
CC(Cc1cc(F)c(OCc2c(-c3ccc(Cl)c(F)c3)nsc2C(F)(F)F)c(F)c1)C(=O)O (stereo not drawn) [Cpd 90, 3-(4-((3-(4-chloro-3-fluorophenyl)-5-(trifluoromethyl)isothiazol-4-yl)methoxy)-3,5-difluorophenyl)-2-methylpropanoic acid]	–	0.154	0.067
CC(Cc1cc(F)c(OCc2c(-c3ccc(F)cc3F)nsc2C(F)(F)F)c(F)c1)C(=O)O (stereo not drawn) [Cpd 196, 3-(4-((3-(2,4-difluorophenyl)-5-(trifluoromethyl)isothiazol-4-yl)methoxy)-3,5-difluorophenyl)-2-methylpropanoic acid]	–	0.195	0.37
Cc1c(CCC(=O)O)ccc(OCc2c(-c3ccc(C(F)(F)F)cc3)nsc2C(F)(F)F)c1C [Cpd 224, 3-(2,3-dimethyl-4-[[5-(trifluoromethyl)-3-[4-(trifluoromethyl)phenyl]-1,2-thiazol-4-yl]methoxy]phenyl)propanoic acid]	–	0.229	0.831
COc1cc(F)c(-c2nsc(C(F)(F)F)c2COc2c(F)cc(CCC(=O)O)cc2F)c(F)c1 [Cpd 197, 3-(4-[[3-(2,6-difluoro-4-methoxyphenyl)-5-(trifluoromethyl)-1,2-thiazol-4-yl]methoxy]-3,5-difluorophenyl)propanoic acid]	–	0.224	0.392
CCc1cc(OCc2c(Cl)nsc2-c2ccccc2C)ccc1CCC(=O)O [Cpd 227, 3-(4-[[3-chloro-5-(2-methylphenyl)-1,2-thiazol-4-yl]methoxy]-2-ethylphenyl)propanoic acid]	–	3.78	0.867
COc1cccc(-c2nsc(C(F)(F)F)c2COc2c(F)cc(CCC(=O)O)cc2F)c1 [Cpd 94, 3-(3,5-difluoro-4-[[3-(3-methoxyphenyl)-5-(trifluoromethyl)-1,2-thiazol-4-yl]methoxy]phenyl)propanoic acid]	–	0.104	0.071
Cc1ccc(-c2nsc(C(F)(F)F)c2COc2ccc(CCC(=O)O)c(C)c2C)cc1F [Cpd 109, 3-(4-[[3-(3-fluoro-4-methylphenyl)-5-(trifluoromethyl)-1,2-thiazol-4-yl]methoxy]-2,3-dimethylphenyl)propanoic acid]	–	0.075	0.089
O=C(O)CCc1cc(F)c(OCc2c(C(F)(F)F)nsc2-c2ccc(Cl)c(F)c2)c(F)c1 [Cpd 110, 3-(4-[[5-(4-chloro-3-fluorophenyl)-3-(trifluoromethyl)-1,2-thiazol-4-yl]methoxy]-3,5-difluorophenyl) propanoic acid]	–	0.105	0.094
